Source: the supplement of paper PMC11061612

Experiments:
Experiment in all cases: Bliss excess, mean over the matrix (fraction); higher = more synergy
[1] = system: ALL-PO (B-Lymphoblastic Leukemia)
Procedure, shortened: (§1)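 Cell lines in DMEM/F12 or RPMI with 10% FBS were plated in 1536-well plates, held 24 hours at 37°C, 5% CO2, then given two-drug dose matrices for 72 hours (DMSO typically 0.2%). Viability was read by CellTiter-Glo 2.0 luminescence and scaled as inhibition from 0 (vehicle wells) to 1 (blank wells). Combination Emax is the second-highest inhibition in the matrix; Bliss excess is observed combination effect minus expected EA + EB − EA·EB, EA and EB being single-agent effects.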

[2] = system: BFTC-909 (Kidney Carcinoma)
Procedure, shortened: as §1

[3] = system: CAL-33 (Oral Cavity Carcinoma)
Procedure, shortened: as §1

[4] = system: ESS-1 (Other Solid Carcinomas)
Procedure, shortened: as §1

EW-11 (Ewing's Sarcoma) = system: EW-11 (Ewing's Sarcoma)
Procedure, shortened: as §1

[5] = system: FTC-133 (Thyroid Gland Carcinoma)
Procedure, shortened: as §1

GAMG (Glioblastoma) = system: GAMG (Glioblastoma)
Procedure, shortened: as §1

[6] = system: HH (T-Cell Non-Hodgkin's Lymphoma)
Procedure, shortened: as §1

[7] = system: HuCCT1 (Biliary Tract Carcinoma)
Procedure, shortened: as §1

[8] = system: L-428 (Hodgkin's Lymphoma)
Procedure, shortened: as §1

[9] = system: LNZTA3WT4 (Low Grade Glioma)
Procedure, shortened: as §1

LOXIMVI (Melanoma) = system: LOXIMVI (Melanoma)
Procedure, shortened: as §1

[10] = system: MHH-CALL-2 (B-Lymphoblastic Leukemia)
Procedure, shortened: as §1

NCI-H2052 (Mesothelioma) = system: NCI-H2052 (Mesothelioma)
Procedure, shortened: as §1

[11] = system: NCI-H209 (Small Cell Lung Carcinoma)
Procedure, shortened: as §1

[12] = system: NUGC-4 (Gastric Carcinoma)
Procedure, shortened: as §1

[13] = system: OV-56 (Ovarian Carcinoma)
Procedure, shortened: as §1

[14] = system: OVCAR-5 (Ovarian Carcinoma)
Procedure, shortened: as §1

[15] = system: SW1710 (Bladder Carcinoma)
Procedure, shortened: as §1

[16] = system: YAPC (Pancreatic Carcinoma)
Procedure, shortened: as §1

SMILES	Bliss excess [1]	Bliss excess [2]	Bliss excess [3]	Bliss excess [4]	Bliss excess (EW-11 (Ewing's Sarcoma))	Bliss excess [5]	Bliss excess (GAMG (Glioblastoma))	Bliss excess [6]	Bliss excess [7]	Bliss excess [8]	Bliss excess [9]	Bliss excess (LOXIMVI (Melanoma))	Bliss excess [10]	Bliss excess (NCI-H2052 (Mesothelioma))	Bliss excess [11]	Bliss excess [12]	Bliss excess [13]	Bliss excess [14]	Bliss excess [15]	Bliss excess [16]
COc1nnc2ccc(N3CCC(c4ccc(OCCN5CCN(C)C(=O)[C@H]5C)cc4)CC3)nn12 [AZD5153] + C=CCn1c(=O)c2cnc(Nc3ccc(N4CCN(C)CC4)cc3)nc2n1-c1cccc(C(C)(C)O)n1 [AZD1775] (first compound max 1 µM, partner max 1 µM)	-0.0198	-0.0723	-0.0757	-0.0749	-0.0976	-0.0099	-0.0516	-0.0442	-0.0778	-0.0411	-0.0356	-0.0494	-0.0843	-0.0882	0.0223	-0.0478	-0.0105	-0.0591	-0.0582	-0.0403
CN(CCO)CC[C@H](CSc1ccccc1)Nc1ccc(S(=O)(=O)NC(=O)c2ccc(N3CCC([C@@H](O)c4ccccc4-c4ccc(Cl)cc4)CC3)cc2)cc1S(=O)(=O)C(F)(F)F [AZD4320] + C1CN(CCC1(C(=O)N[C@@H](CCO)C2=CC=C(C=C2)Cl)N)C3=NC=NC4=C3C=CN4 [Capivasertib] (first compound max 1 µM, 7x7, partner max 3 µM)	0.0177	-0.0955	-0.0424	0.0028	0.0405	-0.0459	-0.0661	0.0193	-0.0536	-0.0146	-0.0176	-0.0189	-0.0126	-0.0743	-0.0057	-0.0706	-0.0243	-0.0487	-0.034	-0.0415
Cc1c2c(nn1C)CSCc1cc(n(C)n1)CSc1cc(c3ccccc3c1)OCCCc1c(C(=O)O)n(C)c3c-2c(Cl)ccc13 [AZD5991] + C=CCn1c(=O)c2cnc(Nc3ccc(N4CCN(C)CC4)cc3)nc2n1-c1cccc(C(C)(C)O)n1 [AZD1775] (first compound max 1 µM, partner max 1 µM)	0.0023	0.0639	-0.0275	-0.0715	-0.0011	0.0172	-0.0528	-0.0046	0.0676	0.0145	-0.0292	-0.029	0.0108	-0.0875	0.0103	-0.0128	0.0126	-0.0096	-0.0257	0.0258
CC(=O)c1c(C)c2cnc(Nc3ccc(N4CCNCC4)cn3)nc2n(C2CCCC2)c1=O [Palbociclib] + CC1(C)CCC(CN2CCN(c3ccc(C(=O)NS(=O)(=O)c4ccc(NCC5CCOCC5)c([N+](=O)[O-])c4)c(Oc4cnc5[nH]ccc5c4)c3)CC2)=C(c2ccc(Cl)cc2)C1 [Venetoclax] (first compound max 10 µM, 7x7, partner max 1 µM)	0.169	0.0244	-0.022	-0.0303	-0.0083	-0.0481	-0.0097	-0.0384	-0.0611	0.0037	-0.0032	-0.0045	-0.032	-0.0432	0.0824	-0.0246	-0.0448	-0.0018	0.0152	-0.0109
CS(=O)(=O)CCNCc1ccc(-c2ccc3ncnc(Nc4ccc(OCc5cccc(F)c5)c(Cl)c4)c3c2)o1 [Lapatinib] + C[C@@H](Oc1cc(-c2cnn(C3CCNCC3)c2)cnc1N)c1c(Cl)ccc(F)c1Cl [Crizotinib] (first compound max 10 µM, 7x7, partner max 10 µM)	0.035	-0.0651	-0.0247	-0.0637	-0.0233	-0.0012	-0.0277	-0.0405	-0.068	-0.0032	-0.0665	-0.0505	0.0219	-0.0676	-0.003	0.0496	0.0056	-0.0818	-0.078	-0.0168
CC1(C)CCC(CN2CCN(c3ccc(C(=O)NS(=O)(=O)c4ccc(NCC5CCOCC5)c([N+](=O)[O-])c4)c(Oc4cnc5[nH]ccc5c4)c3)CC2)=C(c2ccc(Cl)cc2)C1 [Venetoclax] + C[C@@H]1COCCN1C2=NC(=NC(=C2)C3(CC3)[S@](=N)(=O)C)C4=C5C=CNC5=NC=C4 [AZD6738] (first compound max 1 µM, 7x7, partner max 10 µM)	0.0306	-0.0384	-0.0489	0.0147	0.0321	-0.0014	-0.0727	-0.0012	-0.012	0.0164	0.0105	-0.011	-0.0357	-0.0406	0.127	-0.011	-0.0475	-0.0717	-0.0404	-0.0303
